Results on 17 molecules are retold here after BindingDB's records for doi:10.7270/Q2319T8T (The Scripps Research Institute Molecular Screening Center, 2007).

The structures appear in SMILES notation.

Chain of Steroidogenic factor 1 (Q13285 whole entry, the tested form may be a part): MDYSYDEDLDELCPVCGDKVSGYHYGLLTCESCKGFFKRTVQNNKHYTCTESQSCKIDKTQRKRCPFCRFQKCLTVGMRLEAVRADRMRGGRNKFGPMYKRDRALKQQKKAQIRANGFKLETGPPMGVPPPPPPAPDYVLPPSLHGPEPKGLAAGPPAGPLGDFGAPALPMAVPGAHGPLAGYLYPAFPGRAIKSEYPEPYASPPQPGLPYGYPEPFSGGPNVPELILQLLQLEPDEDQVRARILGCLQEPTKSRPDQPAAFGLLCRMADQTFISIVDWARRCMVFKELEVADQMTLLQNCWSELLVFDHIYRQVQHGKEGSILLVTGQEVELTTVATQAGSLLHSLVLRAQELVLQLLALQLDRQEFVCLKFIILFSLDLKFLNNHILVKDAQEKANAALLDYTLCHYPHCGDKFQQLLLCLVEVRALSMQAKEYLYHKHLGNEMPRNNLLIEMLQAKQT

The first assay concerns the target Steroidogenic factor 1 (Homo sapiens, UniProt Q13285). The assay is described as follows: SF-1 inhibitor potency, dose response, cell-based, CHO-K1, Gal4-SF-1 LBD, luciferase luminescence (AID 600).
Conditions: not given
Usually IC50 stands for the concentration at which inhibition is half-maximal. High values mean lower potency, low ones higher potency. In turn, `COc1cccc(N2CCN(c3ncnc4c3[nH]c3ccc(F)cc34)CC2C)c1` (configuration not stated) [8-fluoranyl-4-[4-(3-methoxyphenyl)-3-methyl-piperazin-1-yl]-5H-pyrimido[5,4-b]indole] displayed an IC50 of 2.07 µM.
Same read-out and setting: in the case of `COc1ccc2[nH]c3nc(SC(C)C)nnc3c2c1` [8-methoxy-3-propan-2-ylsulfanyl-5H-[1,2,4]triazino[5,6-b]indole] it was 9.03 µM; in that of `Cc1nnc(SC(=O)N2c3ccccc3Sc3ccccc32)s1` [10-phenothiazinecarbothioic acid S-(5-methyl-1,3,4-thiadiazol-2-yl) ester], 5.38 µM; in that of `O=C(OC1CCOC1=O)c1ccc(-c2nc3ccccc3s2)s1` (configuration not stated) [(2-oxidanylideneoxolan-3-yl) 5-(1,3-benzothiazol-2-yl)thiophene-2-carboxylate], 5.75 µM.
Molecule `COc1cccc2sc(Nc3nc(-c4ccccn4)cs3)nc12` [(4-methoxy-1,3-benzothiazol-2-yl)-[4-(2-pyridyl)thiazol-2-yl]amine] gave an IC50 of 4.48 µM.
Regarding `COc1ccccc1-c1nnc(Nc2nc3c(OC)cccc3s2)o1` [(4-methoxy-1,3-benzothiazol-2-yl)-[5-(2-methoxyphenyl)-1,3,4-oxadiazol-2-yl]amine], it took 6.52 µM to reach half-maximal inhibition (IC50).
The same measure, in the same setting: in the case of `COc1ccccc1-c1nnc2n1N=C(c1ccc(O)c(O)c1)CS2` [(4E)-4-[3-(2-methoxyphenyl)-5H-[1,2,4]triazolo[3,4-b][1,3,4]thiadiazin-6-ylidene]-2-oxidanyl-cyclohexa-2,5-dien-1-one] it was 10.4 µM.
Same read-out and setting: then `CN=c1scc(C)n1N=Cc1ccc(O)cc1O` [(4E)-4-[[(4-methyl-2-methylimino-1,3-thiazol-3-yl)amino]methylidene]-3-oxidanyl-cyclohexa-2,5-dien-1-one], with 15.2 µM; and `CCN1C(=O)/C(=C2/Sc3ccc(OC)cc3N2C)S/C1=N\c1cccc(O)c1` [(5Z)-3-ethyl-2-(3-hydroxyphenyl)imino-5-(5-methoxy-3-methyl-1,3-benzothiazol-2-ylidene)-1,3-thiazolidin-4-one], with 7.66 µM; and `CCc1c(C)nc2ncnn2c1NCCc1ccc(OC)cc1` [(6-Ethyl-5-methyl-[1,2,4]triazolo[1,5-a]pyrimidin-7-yl)-[2-(4-methoxy-phenyl)-ethyl]-amine], with > 11 µM.
The same measure, in the same setting: then `CCc1ccc2oc(-c3cc(N)ccc3O)nc2c1` [(6E)-4-amino-6-(5-ethyl-3H-1,3-benzoxazol-2-ylidene)-1-cyclohexa-2,4-dienone], with > 3.67 µM.
The molecule `CC(C)c1ccc2oc(-c3cc(N)ccc3O)nc2c1` [(6E)-4-amino-6-(5-isopropyl-3H-1,3-benzoxazol-2-ylidene)cyclohexa-2,4-dien-1-one] registered an IC50 of 10.6 µM.
Same read-out and setting: in the case of `CCc1ccc2oc(-c3cc(N=Cc4cccc(OC)c4O)ccc3O)nc2c1` [(6E)-6-[[[(3E)-3-(5-ethyl-3H-1,3-benzoxazol-2-ylidene)-4-keto-cyclohexa-1,5-dien-1-yl]amino]methylene]-2-methoxy-cyclohexa-2,4-dien-1-one] it was 5.66 µM.

The assay is the same for the next values; noted with them: inactive by the depositor's call.
`COc1cccc(Cn2c(NCc3ccco3)nc3c2c(=O)n(C)c(=O)n3C)c1` [8-(2-furanylmethylamino)-7-[(3-methoxyphenyl)methyl]-1,3-dimethylpurine-2,6-dione] registered an IC50 of 25.4 µM.
The molecule `O=C1C(=CNc2ccc3c(c2)OCO3)CCc2ccccc21` [(2E)-2-[(1,3-benzodioxol-5-ylamino)methylene]tetralin-1-one] had an IC50 of 12.3 µM.
On to `CCCCOc1ccc(OC(=O)c2cccnc2)cc1` [(4-butoxyphenyl) pyridine-3-carboxylate], for which half-maximal inhibition (IC50) was put at 15.4 µM.
`COc1ccc(CCNc2c(C)c(C)nc3ncnn23)cc1` [(5,6-Dimethyl-[1,2,4]triazolo[1,5-a]pyrimidin-7-yl)-[2-(4-methoxy-phenyl)-ethyl]-amine] displayed an IC50 of 15.1 µM. The IC50 values of the last two molecules are within 1.5-fold of each other.
